PubChem BioAssay (NCI)
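Five compound concentrations were applied to cells in 96-well plates for 48 hours; endpoints were derived by simple linear interpolation of the resulting dose-response curve. GI50: concentration for 50% inhibition of growth. Definition used: TGI = concentration required for complete inhibition of growth.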

Key:
Experiment in all cases: NCI anticancer screen, dose series, 48 h
[1] = test system: NCI/ADR-RES ovarian
[2] = test system: A549 NSCLC
[3] = test system: NCI-H23 lung
[4] = test system: CAKI-1 renal
[5] = test system: HOP-92 NSCLC
[6] = test system: IGROV1 ovarian
[7] = test system: LOX IMVI melanoma
[8] = test system: HCT-15 colon
[9] = test system: HS 578T breast
[10] = test system: BT-549 breast
[11] = test system: OVCAR-8 ovarian
[12] = test system: SF-539 CNS
[13] = test system: CCRF-CEM leukemia
[14] = test system: KM12 colon
[15] = test system: MDA-MB-231 breast
[16] = test system: UACC-257 melanoma
[17] = test system: HT29 colon
[18] = test system: SK-MEL-28 melanoma
[19] = test system: SK-MEL-5 melanoma
[20] = test system: ACHN renal
[21] = test system: PC-3 prostate
[22] = test system: T-47D breast
[23] = test system: HOP-62 NSCLC
[24] = test system: DU-145 prostate
[25] = test system: SK-OV-3 ovarian
[26] = test system: COLO 205 colon
[27] = test system: SF-268 CNS
[28] = test system: OVCAR-3 ovarian
[29] = test system: MALME-3M melanoma
[30] = test system: NCI-H460 lung
[31] = test system: SN12C renal
[32] = test system: NCI-H226 lung
[33] = test system: HCT-116 colon
[34] = test system: MDA-MB-435
[35] = test system: OVCAR-4 ovarian
[36] = test system: RXF 393 renal
[37] = test system: A498 renal
[38] = test system: HL-60(TB) leukemia
[39] = test system: SR leukemia
[40] = test system: 786-0 renal
[41] = test system: NCI-H522 lung
[42] = test system: UACC-62 melanoma
[43] = test system: K-562 leukemia
[44] = test system: SNB-75 CNS
[45] = test system: SNB-19 CNS
[46] = test system: TK-10 renal
[47] = test system: RPMI-8226 leukemia
[48] = test system: U251 CNS
[49] = test system: UO-31 renal
[50] = test system: MCF7 breast
[51] = test system: EKVX NSCLC
[52] = test system: MOLT-4 leukemia
[53] = test system: SF-295 CNS
[54] = test system: OVCAR-5 ovarian
[55] = test system: HCC-2998 colon
[56] = test system: SW-620 colon
[57] = test system: M14 melanoma
[58] = test system: SK-MEL-2 melanoma

c1ccc(-c2nc([P+](c3ccccc3)(c3ccccc3)c3ccccc3)c(N3CCOCC3)o2)cc1
GI50 [1]: > 76.4 µM
TGI [1]: > 100 µM
GI50 [2]: 2.83 µM
TGI [2]: 48.6 µM
GI50 [3]: 1.91 µM
TGI [3]: 7.24 µM
GI50 [4]: 2.26 µM
TGI [4]: 6.47 µM
GI50 [5]: 0.446 µM
TGI [5]: 3.2 µM
GI50 [6]: 0.557 µM
TGI [6]: 8.35 µM
GI50 [7]: 1.49 µM
TGI [7]: 3.9 µM
GI50 [8]: 9.31 µM
TGI [8]: 58.8 µM
GI50 [9]: 1.62 µM
TGI [9]: 11.7 µM
GI50 [10]: 0.523 µM
TGI [10]: 6.77 µM
GI50 [11]: 1.18 µM
TGI [11]: 10.2 µM
GI50 [12]: 2.19 µM
TGI [12]: 12.2 µM
GI50 [13]: 1.13 µM
TGI [13]: 36.6 µM
GI50 [14]: 0.385 µM
TGI [14]: 2.04 µM
GI50 [15]: 0.92 µM
TGI [15]: 7.12 µM
GI50 [16]: 0.406 µM
TGI [16]: 3.48 µM
GI50 [17]: 0.715 µM
TGI [17]: > 33.3 µM
GI50 [18]: 0.704 µM
TGI [18]: 13.1 µM
GI50 [19]: 0.654 µM
TGI [19]: 1.96 µM
GI50 [20]: 3.07 µM
TGI [20]: 12.7 µM
GI50 [21]: 0.45 µM
TGI [21]: 5.77 µM
GI50 [22]: 0.358 µM
TGI [22]: 6.81 µM
GI50 [23]: 2.11 µM
TGI [23]: 10.6 µM
GI50 [24]: 1.18 µM
TGI [24]: 12.9 µM
GI50 [25]: 1.63 µM
TGI [25]: 6.34 µM
GI50 [26]: 0.477 µM
TGI [26]: 2.07 µM
GI50 [27]: 0.844 µM
TGI [27]: 11.1 µM
GI50 [28]: 0.474 µM
TGI [28]: 4.28 µM
GI50 [29]: 0.529 µM
TGI [29]: 6.13 µM
GI50 [30]: 2.48 µM
TGI [30]: 12 µM
GI50 [31]: 0.934 µM
TGI [31]: 9.15 µM
GI50 [32]: 1.98 µM
TGI [32]: 8.5 µM
GI50 [33]: 1.04 µM
TGI [33]: 10.7 µM
GI50 [34]: 0.445 µM
TGI [34]: 4.55 µM
GI50 [35]: 0.424 µM
TGI [35]: 6.27 µM
GI50 [36]: 1.59 µM
TGI [36]: 7.42 µM
GI50 [37]: 1.71 µM
TGI [37]: 5.58 µM
GI50 [38]: 0.322 µM
TGI [38]: 1.6 µM
GI50 [39]: 0.655 µM
TGI [39]: 20 µM
GI50 [40]: 3.92 µM
TGI [40]: 28.8 µM
GI50 [41]: 0.665 µM
TGI [41]: 5.43 µM
GI50 [42]: 0.589 µM
TGI [42]: 2.94 µM
GI50 [43]: 0.439 µM
TGI [43]: > 74.8 µM
GI50 [44]: 0.393 µM
TGI [44]: 2.73 µM
GI50 [45]: 0.483 µM
TGI [45]: 15 µM
GI50 [46]: 2.75 µM
TGI [46]: 15 µM
GI50 [47]: 0.295 µM
TGI [47]: 1.43 µM
GI50 [48]: 0.483 µM
TGI [48]: 11.9 µM
GI50 [49]: 6.37 µM
TGI [49]: 25.7 µM
GI50 [50]: 0.388 µM
TGI [50]: 4.15 µM
GI50 [51]: 2.31 µM
TGI [51]: 29.5 µM
GI50 [52]: 2.26 µM
TGI [52]: 14.8 µM
GI50 [53]: 2.09 µM
TGI [53]: 5.54 µM
GI50 [54]: 2.45 µM
TGI [54]: 12.8 µM
GI50 [55]: 1.04 µM
TGI [55]: 12.4 µM
GI50 [56]: 0.926 µM
TGI [56]: 20.1 µM
GI50 [57]: 1.56 µM
TGI [57]: 10.9 µM
GI50 [58]: 0.88 µM
TGI [58]: 4.03 µM
